Measured values: ChEMBL document CHEMBL5360640, “Liquiritigenin Confers Liver Protection by Enhancing NRF2 Signaling through Both Canonical and Non-canonical Signaling Pathways” (2023)
Calls of active or inactive are those of the source.

What was measured:
BNL CL.2 [1] = assay: Upregulation of CCDC122 mRNA expression in mouse […] cells; type: functional, cell-based
BNL CL.2 [2] = assay: Effect of ROS generation in mouse BNL CL.2 cells incubated at 20 uM for 24 hrs (reference value: 9.42%); type: functional
BNL CL.2 [3] = assay: Effect of ROS generation in cisplatin induced hepatotoxicity in mouse BNL CL.2 cells assessed as increase in ROS level treated at 40 uM for 24 hrs (reference value: 83%); type: functional
Mus musculus [4] = assay: Hepatoprotective activity against cisplatin induced liver injury […] mouse model assessed as increase of NRF2 expression in liver tissue at 40 mg/kg, ip administered every 24 hrs for 72 hrs by IHC staining analysis; type: functional, organism-based
[5] = biological target: T1, Nuclear factor erythroid 2-related factor 2 (Mus musculus) (UniProt Q60795); assay: Binding affinity to Flag-tagged NRF2 in mouse BNL CL.2 cells assessed as increase in protein half life treated upto 45 mins with compound; type: cell-based; conditions: filed as activator
T1 sequence (whole entry): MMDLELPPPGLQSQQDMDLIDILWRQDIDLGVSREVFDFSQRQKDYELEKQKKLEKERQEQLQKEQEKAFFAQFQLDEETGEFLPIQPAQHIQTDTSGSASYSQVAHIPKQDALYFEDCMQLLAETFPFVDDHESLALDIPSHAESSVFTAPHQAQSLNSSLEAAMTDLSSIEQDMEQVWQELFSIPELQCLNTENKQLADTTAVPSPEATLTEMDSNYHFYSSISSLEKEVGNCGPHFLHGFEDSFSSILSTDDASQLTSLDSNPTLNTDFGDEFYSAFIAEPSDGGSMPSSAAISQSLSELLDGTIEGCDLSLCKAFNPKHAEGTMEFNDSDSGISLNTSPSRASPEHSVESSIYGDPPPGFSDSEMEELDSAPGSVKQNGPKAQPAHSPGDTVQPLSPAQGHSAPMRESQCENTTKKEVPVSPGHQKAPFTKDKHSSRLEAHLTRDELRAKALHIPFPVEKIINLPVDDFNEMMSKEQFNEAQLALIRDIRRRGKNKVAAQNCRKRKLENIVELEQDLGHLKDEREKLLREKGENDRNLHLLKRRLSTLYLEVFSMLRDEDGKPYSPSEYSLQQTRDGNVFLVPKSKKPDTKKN

BNL CL.2 [6] = assay: Inhibition of autophagy in mouse BNL CL.2 cells assessed as suppression of autolysosome formation by measuring reduction in yellow puncta incubated upto 80 uM for 24 hrs by immuno fluoroscence analysis; type: functional, cell-based
BNL CL.2 [7] = assay: Effect of ROS generation in cisplatin induced hepatotoxicity in mouse BNL CL.2 NRF2 cells assessed as increase in ROS level treated at 40 uM for 24 hrs; type: functional, cell-based
[8] = biological target: T1, Nuclear factor erythroid 2-related factor 2 (Mus musculus); assay: Ubiquitination activity in Flag-tagged NRF2 in mouse BNL CL.2 cells at 40 uM for 24 hrs followed by MG132 treatment for 4 hrs by immunoprecipitation assay; type: cell-based
[9] = biological target: T1, Nuclear factor erythroid 2-related factor 2 (Mus musculus); assay: Activation of NRF2 in mouse BNL CL.2 cells treated for 8 to 24 hrs by immunoblot analysis; type: cell-based; conditions: filed as activator, dose 10-40 µM, time 8-24 hrs
BNL CL.2 [10] = assay: Upregulation of DZANK1 mRNA expression in mouse […] cells; type: functional, cell-based
Mus musculus [11] = assay: Hepatoprotective activity against cisplatin induced liver injury […] mouse model assessed as no change in liver to body weight ratio at 40 mg/kg, ip administered every 24 hrs for 72 hrs; type: functional, organism-based
[12] = biological target: T1, Nuclear factor erythroid 2-related factor 2 (Mus musculus); assay: Activation of flag-tagged NRF2 in mouse BNL CL.2 cells in presence of His-tagged KEAP1 C151S mutant at 40 uM for 24 hrs followed by treatment with MG132 for 4 hrs by immunoblot assay; type: cell-based; conditions: filed as activator
[13] = biological target: T1, Nuclear factor erythroid 2-related factor 2 (Mus musculus); assay: Activation of NRF2 in mouse BNL CL.2 cells assessed as increase in Gclm gene level upto 40 uM incubated upto 24 hrs by rt-qPCR analysis; type: cell-based; conditions: filed as activator
BNL CL.2 [14] = assay: Inhibition of autophagy in mouse BNL CL.2 cells assessed as decrease in LC3-II level incubated upto 80 uM for 24 hrs by immunoblotting analysis; type: functional, cell-based
BNL CL.2 [15] = assay: Inhibition of autophagy in mouse BNL CL.2 cells assessed as suppression of autophagosome formation by measuring reduction in yellow puncta incubated upto 80 uM for 24 hrs by immuno fluoroscence analysis; type: functional, cell-based
BNL CL.2 [16] = assay: Effect on p62 level in mouse BNL CL.2 NRF2 knockout cells assessed as increase in protein level treated at 40 uM for 24 hrs by immunoblot analysis; type: functional, cell-based
BNL CL.2 [17] = assay: Effect of ROS generation in mouse BNL CL.2 cells assessed as increase in ROS level treated at 40 uM for 24 hrs (reference value: 8.04%); type: functional
BNL CL.2 [18] = assay: Upregulation of DYNLT1 mRNA expression in mouse […] cells; type: functional, cell-based
[19] = biological target: Kelch-like ECH-associated protein 1/Nuclear factor erythroid 2-related factor 2 (Mus musculus) (UniProt Q60795+Q9Z2X8); assay: Inhibition of in flag-tagged NRF2/wildtype His-tagged KEAP1 in mouse BNL CL.2 cells and protein-protein interaction at 40 uM for 24 hrs followed by treatment with MG132 for 4 hrs by immunoblot assay; type: cell-based; conditions: filed as activator
BNL CL.2 [20] = assay: Upregulation of HIPK4 mRNA expression in mouse […] cells; type: functional, cell-based
BNL CL.2 [21] = assay: Inhibition of autophagy in mouse BNL CL.2 cells assessed as increase in p62 level incubated upto 80 uM for 24 hrs by immunoblotting analysis; type: functional, cell-based
Mus musculus [22] = assay: Hepatoprotective activity against cisplatin induced liver injury […] mouse model assessed as rescue of hepatocellular edema at 40 mg/kg, ip administered every 24 hrs for 72 hrs; type: functional, organism-based
BNL CL.2 [23] = assay: Effect of ROS generation in mouse BNL CL.2 NRF2 knockout cells assessed as increase in ROS level treated at 40 uM for 24 hrs (reference value: 10.6%); type: functional
[24] = biological target: T1, Nuclear factor erythroid 2-related factor 2 (Mus musculus); assay: Activation of flag-tagged NRF2 in mouse BNL CL.2 cells in presence of wildtype His-tagged KEAP1 at 40 uM for 24 hrs followed by treatment with MG132 for 4 hrs by immunoblot assay; type: cell-based; conditions: filed as activator
BNL CL.2 [25] = assay: Inhibition of autophagy in mouse BNL CL.2 cells assessed as suppression of autolysosome formation by measuring reduction in red puncta incubated upto 80 uM for 24 hrs by immuno fluoroscence analysis; type: functional, cell-based
BNL CL.2 [26] = assay: Effect of ROS generation in cisplatin induced hepatotoxicity in mouse BNL CL.2 NRF2 knockout cells assessed as increase in ROS level treated at 40 uM for 24 hrs (reference value: 93.8%); type: functional
BNL CL.2 [27] = assay: Effect on KEAP1 level in mouse BNL CL.2 NRF2 knockout cells assessed as no change treated at 40 uM for 24 hrs by immunoblot analysis; type: functional, cell-based
BNL CL.2 [28] = assay: Upregulation of […] mRNA expression in mouse […] CL.2 cells; type: functional, cell-based
BNL CL.2 [29] = assay: Upregulation of OAS1 mRNA expression in mouse […] cells; type: functional, cell-based
Mus musculus [30] = assay: Hepatoprotective activity against cisplatin induced liver injury […] mouse model assessed as reduction of MDA in liver tissue at 40 mg/kg, ip administered every 24 hrs for 72 hrs; type: functional, organism-based
BNL CL.2 [31] = assay: Upregulation of NOTUM mRNA expression in mouse […] cells; type: functional, cell-based
[32] = biological target: T2, Nuclear factor erythroid 2-related factor 2 (Homo sapiens) (UniProt Q16236); assay: Activation of NRF2 in human MHCC97H cells treated for 8 to 24 hrs by immunoblot analysis; type: cell-based; conditions: filed as activator, dose 10-40 µM, time 8-24 hrs
T2 sequence (whole entry): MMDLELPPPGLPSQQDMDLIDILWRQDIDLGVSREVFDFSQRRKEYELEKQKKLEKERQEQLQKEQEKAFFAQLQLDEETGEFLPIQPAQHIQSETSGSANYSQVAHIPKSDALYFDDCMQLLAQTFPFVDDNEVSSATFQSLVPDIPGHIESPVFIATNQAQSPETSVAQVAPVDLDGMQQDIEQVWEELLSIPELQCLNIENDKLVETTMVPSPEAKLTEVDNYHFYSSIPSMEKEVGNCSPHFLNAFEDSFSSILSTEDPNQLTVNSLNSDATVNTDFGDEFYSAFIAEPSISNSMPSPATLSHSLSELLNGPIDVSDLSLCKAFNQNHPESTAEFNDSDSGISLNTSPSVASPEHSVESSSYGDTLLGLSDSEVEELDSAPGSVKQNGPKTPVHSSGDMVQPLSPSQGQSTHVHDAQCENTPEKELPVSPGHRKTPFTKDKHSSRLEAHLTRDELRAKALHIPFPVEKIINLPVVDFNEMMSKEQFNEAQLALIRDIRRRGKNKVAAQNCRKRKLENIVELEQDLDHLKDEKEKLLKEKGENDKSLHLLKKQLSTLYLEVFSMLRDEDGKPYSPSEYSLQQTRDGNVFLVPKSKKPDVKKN

BNL CL.2 [33] = assay: Inhibition of autophagy in mouse BNL CL.2 cells assessed as suppression of autophagosome formation by measuring reduction in red puncta incubated upto 80 uM for 24 hrs by immuno fluoroscence analysis; type: functional, cell-based
Mus musculus [34] = assay: Hepatoprotective activity against cisplatin induced liver injury […] mouse model assessed as rescue of disorder arrangement of hepatic cord at 40 mg/kg, ip administered every 24 hrs for 72 hrs; type: functional, organism-based
BNL CL.2 [35] = assay: Effect of ROS generation in mouse BNL CL.2 cells incubated at 40 uM for 24 hrs (reference value: 9.42%); type: functional
Mus musculus [36] = assay: Hepatoprotective activity against cisplatin induced liver injury […] mouse model assessed as reduction of ALT in serum at 40 mg/kg, ip administered every 24 hrs for 72 hrs; type: functional, organism-based
BNL CL.2 [37] = assay: Upregulation of ARSG mRNA expression in mouse […] CL.2 cells; type: functional, cell-based
Mus musculus [38] = assay: Hepatoprotective activity against cisplatin induced liver injury […] mouse model assessed as reduction of AST in serum at 40 mg/kg, ip administered every 24 hrs for 72 hrs; type: functional, organism-based
BNL CL.2 [39] = assay: Effect on KEAP1 level in mouse BNL CL.2 cells assessed as no change treated at 40 uM for 24 hrs by immunoblot analysis; type: functional, cell-based
BNL CL.2 [40] = assay: Effect of ROS generation in cisplatin induced hepatotoxicity in mouse BNL CL.2 NRF2 knockout cells assessed as increase in ROS level treated at 40 uM for 24 hrs; type: functional, cell-based
[41] = biological target: T2, Nuclear factor erythroid 2-related factor 2 (Homo sapiens); assay: Activation of NRF2 in human HepG2 cells treated for 8 to 24 hrs by immunoblot analysis; type: cell-based; conditions: filed as activator, dose 10-40 µM, time 8-24 hrs
Mus musculus [42] = assay: In vivo activation of NRF2 in C57BL/6J mouse liver assessed as upregulation of NRF2 level administered at 40 mg/kg, ip 3 times in a day by immunohistochemistry analysis; type: functional, organism-based; conditions: filed as activator, time 1.0 day
[43] = biological target: T1, Nuclear factor erythroid 2-related factor 2 (Mus musculus); assay: Activation of NRF2 in mouse BNL CL.2 cells assessed as increase in Akr1c1 gene level upto 40 uM incubated upto 24 hrs by rt-qPCR analysis; type: cell-based; conditions: filed as activator
BNL CL.2 [44] = assay: Effect on KEAP1 protein level in mouse BNL CL.2 cells assessed as no change in level at 40 uM measured upto 24 hrs; type: functional, cell-based; conditions: filed as activator
BNL CL.2 [45] = assay: Effect of ROS generation in mouse BNL CL.2 cells incubated at 10 uM for 24 hrs (reference value: 9.42%); type: functional
[46] = biological target: T1, Nuclear factor erythroid 2-related factor 2 (Mus musculus); assay: Activation of NRF2 in mouse BNL CL.2 cells assessed as increase in Hmox1 gene level upto 40 uM incubated upto 24 hrs by rt-qPCR analysis; type: cell-based; conditions: filed as activator
Mus musculus [47] = assay: Hepatoprotective activity against cisplatin induced liver injury […] mouse model assessed as reduction of […] in liver tissue at 40 mg/kg, ip administered every 24 hrs for 72 hrs; type: functional, organism-based

Chain of Kelch-like ECH-associated protein 1/Nuclear factor erythroid 2-related factor 2 (Mus musculus) (Q9Z2X8 whole entry, looked up, one chain of several): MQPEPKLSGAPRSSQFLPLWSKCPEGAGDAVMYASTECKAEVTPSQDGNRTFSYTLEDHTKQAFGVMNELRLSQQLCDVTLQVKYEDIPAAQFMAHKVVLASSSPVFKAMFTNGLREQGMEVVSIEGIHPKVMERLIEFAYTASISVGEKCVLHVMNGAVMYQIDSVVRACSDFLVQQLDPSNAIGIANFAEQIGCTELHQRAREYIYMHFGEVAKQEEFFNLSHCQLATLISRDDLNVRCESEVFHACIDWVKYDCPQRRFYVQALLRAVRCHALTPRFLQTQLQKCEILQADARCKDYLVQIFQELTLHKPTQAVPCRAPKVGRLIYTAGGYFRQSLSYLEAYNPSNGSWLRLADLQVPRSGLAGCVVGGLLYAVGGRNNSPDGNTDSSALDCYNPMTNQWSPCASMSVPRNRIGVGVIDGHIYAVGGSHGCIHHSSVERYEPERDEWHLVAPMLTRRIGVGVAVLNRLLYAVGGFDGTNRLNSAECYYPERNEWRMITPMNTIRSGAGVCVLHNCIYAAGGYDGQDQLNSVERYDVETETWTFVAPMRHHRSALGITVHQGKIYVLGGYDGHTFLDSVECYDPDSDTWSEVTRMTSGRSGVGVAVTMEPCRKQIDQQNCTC

O=C1C[C@@H](c2ccc(O)cc2)Oc2cc(O)ccc21 [LIQUIRTIGENIN]
9.8%: Activity (BNL CL.2 [45])
2.26%: Activity (BNL CL.2 [17])
8.04%: Activity (BNL CL.2 [23])
inactive: Activity [8]
76%: Activity (BNL CL.2 [3])
active: Activity (BNL CL.2 [1]) | Activity (Mus musculus [4]) | Activity [5] | inhibition (BNL CL.2 [6]) | Activity (BNL CL.2 [7]) | Activity [9] Dose-Dependent Effect | Activity (BNL CL.2 [10]) | Activity (Mus musculus [11]) | Activity [12] | Activity [13] | inhibition (BNL CL.2 [14]) | inhibition (BNL CL.2 [15]) | Activity (BNL CL.2 [16]) | Activity (BNL CL.2 [18]) | inhibition [19] | Activity (BNL CL.2 [20]) | inhibition (BNL CL.2 [21]) | Activity (Mus musculus [22]) | Activity [24] | inhibition (BNL CL.2 [25]) | Activity (BNL CL.2 [27]) | Activity (BNL CL.2 [28]) | Activity (BNL CL.2 [29]) | Activity (Mus musculus [30]) | Activity (BNL CL.2 [31]) | Activity [32] Dose-Dependent Effect | inhibition (BNL CL.2 [33]) | Activity (Mus musculus [34]) | Activity (Mus musculus [36]) | Activity (BNL CL.2 [37]) | Activity (Mus musculus [38]) | Activity (BNL CL.2 [39]) | Activity (BNL CL.2 [40]) | Activity [41] Dose-Dependent Effect | Activity (Mus musculus [42]) | Activity [43] | Activity (BNL CL.2 [44]) | Activity [46] | Activity (Mus musculus [47])
9.34%: Activity (BNL CL.2 [2])
91.9%: Activity (BNL CL.2 [26])
4.52%: Activity (BNL CL.2 [35])
